Reference: patent US20250296922A1, “POLYSUBSTITUTED PYRROLIDINE DERIVATIVE, PREPARATION METHOD THEREFOR AND USE THEREOF” (SHANGHAI WENNAI THERAPEUTICS CO LTD, priority 2023, published 2025)
Read-outs that look alike come from different tables or passages of the source. Blank lines part the entries; values can stand above or below the compound they belong to.

Key:
[1] = target: CYP3A (printed CYP3A-M) (Homo sapiens, UniProt P08684); assay: Human liver microsomal CYP inhibition test, CYP3A-M (midazolam); format: in vitro ADME
CYP3A (printed CYP3A-M), sequence (P08684 2-503 limits assumed): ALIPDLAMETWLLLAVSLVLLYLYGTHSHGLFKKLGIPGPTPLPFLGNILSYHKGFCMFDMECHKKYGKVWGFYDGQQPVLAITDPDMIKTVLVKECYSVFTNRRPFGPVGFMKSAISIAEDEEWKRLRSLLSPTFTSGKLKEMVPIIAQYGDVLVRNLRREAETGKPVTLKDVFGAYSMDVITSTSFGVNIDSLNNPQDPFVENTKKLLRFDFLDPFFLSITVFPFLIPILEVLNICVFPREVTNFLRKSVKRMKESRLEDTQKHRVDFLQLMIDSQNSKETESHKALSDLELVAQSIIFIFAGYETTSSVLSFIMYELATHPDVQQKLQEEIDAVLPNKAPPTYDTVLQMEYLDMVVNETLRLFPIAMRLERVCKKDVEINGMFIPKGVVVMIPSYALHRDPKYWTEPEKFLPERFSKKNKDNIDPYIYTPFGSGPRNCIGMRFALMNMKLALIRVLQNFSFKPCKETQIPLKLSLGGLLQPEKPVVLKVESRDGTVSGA
Procedure: (§1) 3.1 Buffer solutions: (1) potassium phosphate 100 mM; (2) magnesium chloride, 33 mM;
(§2) 3.2.3 Reservoir for compounds to be tested: Dissolving the compounds to be tested in DMSO to form a 10 mM DMSO solution.
(§3) 3.4.1 Preparation of human liver microsomal working solution (1.27×) (final concentration: 0.2 mg/mL)
(§4) 3.5.3 Adding 20 μL of substrate solution to the appropriate wells and 20 μL of potassium phosphate buffer to the blank wells;
(§5) 3.5.4 Adding 2 μL of different concentrations of target compounds (final concentrations from 0.05 μM to 50 μM, 7 concentrations in total) or standard inhibitors to each well, with 2 μL of methanol solution in the non-inhibitor and blank wells;
(§6) 3.5.5 Adding 1.012 mL of liver microsomes to 78.988 mL of potassium phosphate buffer, then adding 158 μL of liver microsomes solution to all wells; preheating the well plate for 10 minutes in a 37° C. water bath;
(§7) 3.5.6 Weighing 129.1 mg NADPH (purchased from SyncoZymes Co. Ltd.) and adding to 15.0 mL of 33 Mm MgCl2 solution to give a 10 mM concentration, adding 20 μL to each well;
(§8) 3.5.7 Mixing and incubating the well plate in a 37° C. water bath for 10 minutes, then adding 400 μL of cold termination solution at the appropriate time point;
(§9) 3.5.8 Centrifuging the sample at 4000 rpm for 20 minutes to precipitate the protein. Transferring 200 μL of supernatant to 100 μL of HPLC water and shaking for 10 minutes. The samples were analyzed by LC/MS/MS;
(§10) Percentage inhibition was plotted for blank control and different concentrations of target compounds by using XL fitting or SigmaPlot and the data were analyzed by non-linear regression. IC50 values were determined by using either 3-parameter or 4-parameter logistic equations.

[2] = Stability of the compound in liver microsomes (rat); format: in vitro ADME, SD rat; conditions: 1 μM compound, 0.5 mg protein/mL
Procedure: 2.1.1. working solution: 5 μL of test or control compound stock solution (10 mM DMSO solution) was diluted with 495 μL of acetonitrile (ACN) to obtain an intermediate stock solution (100 μM, 99% ACN).
2.2.2 Preparation procedure: An appropriate amount of NADPH powder was weighed and diluted with 10 mM MgCl2 buffer (working solution concentration: 10 mM; final reaction system concentration: 1 mM).
2.3.2 Preparation procedure: The appropriate concentration of liver microsomal working solution was prepared in 100 mM potassium phosphate buffer;
Acetonitrile (ACN) solution at 4° C. containing 200 ng/mL of Tolbutamide and 200 ng/ml of labetalol as internal standards 2.5. Operation steps:
2.5.2. Diluting liver microsomes with 100 mM potassium phosphate buffer to a concentration of 0.56 mg/mL.
2.5.3. Transferring 445 μL of liver microsomal working solution (0.56 mg/mL) to pre-heated incubation plates T60 and NCF60, and then pre-heating the incubation plates T60 and NCF60 for 10 minutes at 37° C. with shaking. Transferring 54 μL of liver microsomes to each well of the blank plate, adding 6 μL of NAPDH coenzyme solution to the blank plate, and finally transferring 180 μL of termination solution to the blank plate.
2.5.4 Adding 5 μL of compound working solution (100 μM) to the incubation plates T60 and NCF60 containing liver microsomes and mixing three times.
2.5.5. Adding 50 μL of buffer to the NCF60 plate and mixing three times, starting the timer and incubating at 37° C. for 60 min with the plate shaking.
2.5.6. Adding 180 μL of quenching solution and 6 μL of NAPDH coenzyme working solution sequentially to quenching plate TO, making sure that the plate was cold to prevent volatilization of the incubation solution.
2.5.7. For plate T60, mixing well three times and immediately transferring 54 μL of mixing solution (0-min time point) to quenching plate TO, then adding 44 μL of NAPDH coenzyme working solution to incubation plate T60. Starting the timer:
2.5.8. At the 5, 15, 30, 45 and 60 minute time points, adding 180 μL of quenching solution to the quenching plate and transferring 60 μL of reaction solution from the T60 plate to the quenching plate at each time point.
2.5.9. For NCF60 plates, mixing well and transferring 60 μL of reaction solution from the NCF60 incubating solution to a quenching plate containing 180 μL of quenching solution at 60th minute.
2.5.10. All plates were mixed on a shaker for 10 min and then centrifuged at 4000 rpm at 4° C. for 20 min.
2.5.11. Transferring 80 μL of supernatant to 240 μL of HPLC water and mixing on a
2.6.1. Calculating t1/2 and Clint (mic) values based on first-order elimination kinetics: […]

[3] = Pharmacokinetic experiment, dog test, intravenous injection; format: in vivo; conditions: male Beagle, 0.5 mg/kg
Text: 4.2.1 Abstract: Beagle was used as the test animal, the LC/MS/MS method was applied to determine the drug concentration in the plasma of Beagle at different points after intravenous injection of the compounds of the examples, to study the pharmacokinetic behavior of the compounds of the present invention in the Beagle, and to evaluate their pharmacokinetic characteristics.
4.2.2.2 Test animals: 4 male Beagles, provided by Jiangsu LingfuZhaoshengyuan Biotechnology Co. Fasting started at 5 p.m. on the day before drug administration, and the duration of fasting was no less than 12 hours, and food was resumed 4 hours after drug administration.
4.2.2.3 Drug Preparation: Weighed an amount of the test compound and prepared a completely clear solution with a final concentration of 1 mg/mL using a mixed solvent of DMSO: Solutol: Saline (5%: 5%: 90%).
4.2.2.4 Administration: a dose of 0.5 mg/kg, a volume of 0.5 mL/kg.
4.2.3 Test operation: 0.4 mL of blood samples were collected from the forelimb vein of male Beagles before and 5 min, 15 min, 30 min, 1 h, 2h, 4 h, 6h, 8 h, 10 h and 24 h after intravenous administration and placed in EDTA-K2 anticoagulant tubes. After blood samples were collected, they were placed in labelled centrifuge tubes in ice water bath and rapidly centrifuged to separate the plasma. Centrifugation conditions: 4000 rpm, 10 min, 4° C., and the plasma was placed at −70° C. or below for measurement.
Plasma samples were thawed at room temperature and 50 μL was added to 400 μL of acetonitrile containing the internal standard (40 ng/mL, terfenadine), vortexed for 1 min and then centrifuged at 15400 g for 10 min at 4° C. The supernatant was diluted 10-fold with 80% acetonitrile in water and 1 μL sample was injected for analysis.

[4] = target: CYP3A-M (Homo sapiens, UniProt P08684); assay: Human liver microsomal CYP inhibition test, CYP3A-M (midazolam); format: in vitro ADME; conditions: human liver microsomes 0.2 mg/mL; substrate Midazolam
CYP3A-M, sequence (P08684 2-503 limits assumed): as above
Procedure: as §1, §2, §3, §4, §5, §6, §7, §8, §9, §10

IC50 at 10 min ([1]; probe Midazolam, human liver microsomes 0.2 mg/mL, substrate Midazolam, read-out: IC50 (μM) CYP3A-M): 30.9 µM
Compound: COc1c([C@H]2[C@H](C(=O)Nc3ccc[n+]([O-])c3)N[C@@](C)(C(F)(F)F)[C@H]2C)ccc(F)c1F [Compound 7, 3-((2R,3S,4S,5R)-3-(3,4-difluoro-2-methoxyphenyl)-4,5-dimethyl-5-(trifluoromethyl)pyrrolidine-2-carboxamido)pyridine 1-oxide]

Compound: COc1c([C@H]2[C@H](C(=O)Nc3ccnc(C(N)=O)c3)O[C@@](C)(C(F)(F)F)[C@H]2C)ccc(F)c1F [VX-548, reference compound]
half-life at 1 μM ([2]; Sprague-Dawley, rat, liver microsomes, 37° C., read-out: Rat liver microsomes T½): 0.278 h
Rat liver microsomes Residual (T = 60 min) ([2]; T = 60 min): 8.5%
IC50 at 10 min ([1]; human, microsomes): > 50 µM
AUC(0-t) ([3]; dog, plasma, read-out: Area under the curve AUC0-t): 11100 ng·h/mL
clearance ([3]; dog, plasma, read-out: Clearance CL (converted)): 0.438 mL/min/kg
half-life ([3]; dog, plasma, read-out: half-life t½ (converted)): 19.7 h

Compound: 4-((2R,3S,4S,5R)-3-(3,4-difluoro-2-(methoxy-d3)phenyl)-4,5-dimethyl-5-(trifluoromethyl) pyrrolidine-2-carboxamido)pyridinamide [Compound 11]
IC50 [4]: > 50 µM
Area under the curve AUC0-t [3]: 15644 ng·h/mL
Clearance CL [3]: 0.134 mL/min/kg
half-life t½ [3]: 57.4 h

Compound: COc1c([C@H]2[C@H](C(=O)Nc3cccc(S(N)(=O)=O)c3)N[C@@](C)(C(F)(F)F)[C@H]2C)ccc(F)c1F [Compound 8, (2R,3S,4S,5R)-3-(3,4-difluoro-2-methoxyphenyl)-4,5-dimethyl-aza-(3-aminosulfonylphenyl)-5-(trifluoromethyl) pyrrolidine-2-carboxamide]
IC50 [4]: 26.2 µM
